Values quoted from earlier work, collected in patent US20230165862A1, “CANCER THERAPY USING 3,5-DISUBSTITUTED BENZENE ALKYNYL COMPOUND AND MEK INHIBITOR” (TAIHO PHARMACEUTICAL CO., LTD., priority 2020, published 2023).
Each block holds one compound with its values, some of them ahead of it.

Assays:
[1] = human; 30 mg or more per dose twice daily
[2] = human; steady-state PK, dose of 40 mg in Stage 1 (21/7), once daily
[3] = human; 0.5 mg or more per dose once daily

- Time a blood concentration of 18.45 ng/mL (corresponds to 100 nM) is achieved [1]: more than 8 hours
SMILES: Cn1cnc2c(F)c(Nc3ccc(Br)cc3F)c(C(=O)NOCCO)cc21 [Binimetinib, 5-[(4-bromofluorophenyl)amino]-4-fluoro-N-(2-hydroxyethoxy)-1-methyl-1H-benzimidazole-6-carboxamide]

- Time a concentration higher than 53 ng/mL (corresponds to 100 nM) is achieved [2]: 14 h
SMILES: O=C(c1ccc(F)c(F)c1Nc1ccc(I)cc1F)N1CC(O)([C@@H]2CCCCN2)C1 [Cobimetinib, [3,4-difluoro-2-[(2-fluoro-4-iodophenyl)amino]phenyl][3-hydroxy-3-[(2S)-2-piperidinyl]-1-azetidinyl]methanone]

- Time a blood concentration of 1.3 ng/mL (corresponds to 10 nM) is achieved [3]: ≥ 24 h
SMILES: CC(=O)Nc1cccc(-n2c(=O)n(C3CC3)c(=O)c3c(Nc4ccc(I)cc4F)n(C)c(=O)c(C)c32)c1 [Trametinib, N-(3-{3-cyclopropyl-5-[(2-fluoro-4-iodophenyl)amino]-6,8-dimethyl-2,4,7-trioxo-3,4,6,7-tetrahydropyrido[4,3-d]pyrimidin-1(2H)-yl}phenyl)acetamide]
